Test [1] deals with T1, HIV-1 Integrase (Human immunodeficiency virus type 1 group M subtype B, UniProt P04585). The test is described as follows: HIV-1 integrase 3′-processing inhibition. The test is classed as biochemical.
The target of test [2] is T1, HIV-1 Integrase. As to the kind of experiment: HIV-1 integrase strand transfer inhibition. Format: biochemical.

pIC50: −log10 of the molar value. A value given as a limit tells only on which side of the number the result lay.

For the compound `COc1ccc(/C=C2\C(=O)N(c3cccc(Br)c3)N=C2C(F)(F)F)c(OC)c1OC` [Compound 4b], the pIC50 against HIV-1 Integrase [1] and against HIV-1 Integrase [2] was < 4.00 each time.
With `O=C1/C(=C\c2ccc(O)c(OCc3ccc(F)cc3)c2)C(C(F)(F)F)=NN1c1cccc(Br)c1` [Compound 4f], the pIC50 (as a rule, the IC50 on a negative log10 scale, so that one unit is a factor of ten) against HIV-1 Integrase [1] was < 4.00.
Take `COc1ccc(/C=C2\C(=O)N(c3ccccc3)N=C2C(F)(F)F)cc1OCc1ccc(F)cc1` [Compound 5a]: the pIC50 on HIV-1 Integrase [1] and against HIV-1 Integrase [2] was < 4.00 throughout.
On to `COc1ccc(/C=C2\C(=O)N(c3cccc(C)c3)N=C2C(F)(F)F)cc1OCc1ccc(F)cc1` [Compound 5b], for which the pIC50 against HIV-1 Integrase [1] and against HIV-1 Integrase [2] was < 4.00 throughout.
In the case of `COc1ccc(/C=C2\C(=O)N(c3cccc(-c4ccccc4)c3)N=C2C(F)(F)F)cc1OCc1ccc(F)cc1` [Compound 5d], on HIV-1 Integrase [1], the pIC50 was < 4.00.
Still for that read-out and setting: with `COc1ccc(/C=C2\C(=O)N(c3cccc(F)c3)N=C2C(F)(F)F)cc1OCc1ccc(F)cc1` [Compound 5f] the figure was < 4.00; with `COc1ccc(/C=C2\C(=O)N(c3cccc(I)c3)N=C2C(F)(F)F)cc1OCc1ccc(F)cc1` [Compound 5i], < 4.00.
For the compound `COc1ccc(/C=C2\C(=O)N(c3cc(Cl)cc(Cl)c3)N=C2C(F)(F)F)cc1OCc1ccc(F)cc1` [Compound 5j], at HIV-1 Integrase [1], the pIC50 was < 4.00.
On the same count and under the same terms, with `COc1ccc(/C=C2\C(=O)N(c3ccc(C(=O)O)cc3)N=C2C(F)(F)F)cc1OCc1ccc(F)cc1` [Compound 5m] the figure was < 4.00.
On to `COc1ccc(/C=C2\C(=O)N(c3ccc(NS(C)(=O)=O)cc3)N=C2C(F)(F)F)cc1OCc1ccc(F)cc1` [Compound 5n], for which the pIC50 on HIV-1 Integrase [1] and on HIV-1 Integrase [2] was < 4.00 in each case.
Consider `COc1ccc(/C=C2\C(=O)N(c3nc4ccccc4s3)N=C2C(F)(F)F)cc1OCc1ccc(F)cc1` [Compound 5o], for which, at HIV-1 Integrase [1], the pIC50 was < 4.00.
Turning to `COc1ccc(/C=C2\C(=O)N(c3cccc(Br)c3)N=C2C)cc1OCc1ccc(F)cc1` [Compound 6a], the pIC50 on HIV-1 Integrase [1] and against HIV-1 Integrase [2] was < 4.00 in each case.
Turning to `CCC1=NN(c2cccc(Br)c2)C(=O)/C1=C\c1ccc(OC)c(OCc2ccc(F)cc2)c1` [Compound 6b], the pIC50 against HIV-1 Integrase [1] and against HIV-1 Integrase [2] was < 4.00 throughout.
For `COc1ccc(/C=C2\C(=O)N(c3cccc(Br)c3)N=C2NC(=O)C(F)(F)F)cc1OCc1ccc(F)cc1` [Compound 6d], the negative logarithm of the IC50 (pIC50) at HIV-1 Integrase [1] and on HIV-1 Integrase [2] was < 4.00 throughout.
`COc1ccc(/C=C2\C(=O)N(c3cccc(Br)c3)N=C2OC(C)=O)cc1OCc1ccc(F)cc1` [Compound 6e]: the pIC50 on HIV-1 Integrase [1] was < 4.00.
As to `COc1ccc(/C=C2\C(=O)N(c3cccc(Br)c3)N=C2COC(C)=O)cc1OCc1ccc(F)cc1` [Compound 6f], the pIC50 on HIV-1 Integrase [1] is < 4.00.
The same measure, in the same setting: with `CCC(=O)OC1=NN(c2cccc(Br)c2)C(=O)/C1=C\c1ccc(OC)c(OCc2ccc(F)cc2)c1` [Compound 6g] the figure was < 4.00.
On to `O=C(O)C1=NN(c2cccc([N+](=O)[O-])c2)C(=O)/C1=C\c1ccc(OCc2ccc(F)cc2)c(O)c1` [Compound 14d], for which the “Strand Transfer IC50” value on HIV-1 Integrase [2] (in vitro, strand transfer step) was “single-digit micromolar”.
For the compound `COc1ccc(/C=C2\C(=O)N(c3ccc(I)cc3)N=C2C(F)(F)F)cc1OCc1ccc(F)cc1` [Compound 56l], the negative-log IC50 (pIC50) against HIV-1 Integrase [1] is < 4.00.

The record behind these values is publication PMC2957562 (Bioorganic & medicinal chemistry letters, 2010).
